Results reported in US9079866B2, “Flap modulators” (JANSSEN PHARMACEUTICA NV, priority 2013, dated 2015).
Read-outs that look alike come from different tables or passages of the source.

What was measured:
human FLAP = human FLAP (Homo sapiens (Human), UniProt P20292); assay: FLAP binding assay (HTRF format); conditions: human FLAP wild type, HTRF format; average of two plates, duplicates
Summary of the method: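 Binding of compounds to FLAP read out as HTRF ratio. Values are the mean of two assay plates, each sample run in duplicate per plate.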

[1] = tested on: leukotriene pathway in human whole blood (LTB4 levels); assay: Human whole blood assay (A23187-stimulated LTB4); format: cell-based; conditions: human whole blood diluted 1:1 in RPMI, A23187-stimulated LTB4, read-out: LTB4 IC50 1:1
Summary of the method: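 Compounds are pre-incubated 15 min at 37° Celsius in RPMI-diluted (1:1) heparinised whole blood before a 30 min A23187 stimulus (7 μg/mL). Plasma LTB4 is read by immunoassay kit, with IC50 calculated from a 4-parameter equation.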

Sequence of human FLAP (P20292 whole entry): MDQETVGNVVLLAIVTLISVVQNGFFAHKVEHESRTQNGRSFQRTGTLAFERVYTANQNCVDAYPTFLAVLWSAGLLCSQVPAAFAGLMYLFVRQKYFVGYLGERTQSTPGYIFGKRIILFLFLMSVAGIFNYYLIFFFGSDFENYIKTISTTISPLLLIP

SMILES	Ki (human FLAP) [nM]	IC50 ([1]; Homo sapiens) [nM]	IC50 [1] [nM]
Nc1cnc(-c2ccc(-c3ccccc3S(=O)(=O)N[C@H]3CCNC3=O)cc2F)cn1 [Example 107, (S)-4′-(5-Aminopyrazin-2-yl)-3′-fluoro-N-(2-oxopyrrolidin-3-yl)-[1,1′-biphenyl]-2-sulfonamide]	16	132	
Nc1cnc(-c2ccc(-c3ccccc3S(=O)(=O)N[C@H]3CCCNC3=O)cc2F)cn1 [Example 108, (S)-4′-(5-Aminopyrazin-2-yl)-3′-fluoro-N-(2-oxopiperidin-3-yl)-[1,1′-biphenyl]-2-sulfonamide]	10	49	
CC(C)[C@H](CO)NS(=O)(=O)c1ccccc1-c1ccc(-c2cnc(N)cn2)c(F)c1 [Example 109, (R)-4′-(5-Aminopyrazin-2-yl)-3′-fluoro-N-[1-(hydroxymethyl)-2-methylpropyl]biphenyl-2-sulfonamide]	1	18	
Nc1cnc(-c2ccc(-c3ccccc3S(=O)(=O)N[C@H]3CC[C@H](O)CC3)cc2F)cn1 [Example 110, 4′-(5-Aminopyrazin-2-yl)-3′-fluoro-N-(4-hydroxycyclohexyl)biphenyl-2-sulfonamide]	3	29	
Nc1cnc(-c2ccc(-c3ccccc3S(=O)(=O)N3CC[C@@H](CO)C3)cc2F)cn1 [Example 111, (R)-(1-((4′-(5-Aminopyrazin-2-yl)-3′-fluoro-[1,1′-biphenyl]-2-yl)sulfonyl)pyrrolidin-3-yl)methanol]	4	58	
Nc1cnc(-c2ccc(-c3ccccc3S(=O)(=O)N3CC[C@H](CO)C3)cc2F)cn1 [Example 112, (S)-(1-{[4′-(5-Aminopyrazin-2-yl)-3′-fluorobiphenyl-2-yl]sulfonyl}pyrrolidin-3-yl)methanol]	7	154	
Nc1cnc(-c2ccc(-c3ccccc3S(=O)(=O)N[C@@H]3CCCNC3=O)cc2F)cn1 [Example 113, (R)-4′-(5-Aminopyrazin-2-yl)-3′-fluoro-N-(2-oxopiperidin-3-yl)biphenyl-2-sulfonamide]	10	145	
CN([C@@H]1CCCNC1)S(=O)(=O)c1ccccc1-c1ccc(-c2cnc(N)cn2)c(F)c1 [Example 114, (R)-4′-(5-Aminopyrazin-2-yl)-3′-fluoro-N-methyl-N-piperidin-3-ylbiphenyl-2-sulfonamide]	12	221	
CN([C@H]1CCCNC1)S(=O)(=O)c1ccccc1-c1ccc(-c2cnc(N)cn2)c(F)c1 [Example 115, (S)-4′-(5-Aminopyrazin-2-yl)-3′-fluoro-N-methyl-N-piperidin-3-ylbiphenyl-2-sulfonamide]	4	108	
Nc1cnc(-c2ccc(-c3ccccc3S(=O)(=O)N[C@H](CO)Cc3ccccc3)cc2F)cn1 [Example 116, (S)-4′-(5-Aminopyrazin-2-yl)-3′-fluoro-N-(1-hydroxy-3-phenylpropan-2-yl)-[1,1′-biphenyl]-2-sulfonamide]	1	12	
Nc1cnc(-c2ccc(-c3ccccc3S(=O)(=O)NC[C@H](O)c3ccccc3)cc2F)cn1 [Example 117, (R)-4′-(5-Aminopyrazin-2-yl)-3′-fluoro-N-(2-hydroxy-2-phenylethyl)-[1,1′-biphenyl]-2-sulfonamide]	1	7	
Nc1cnc(-c2ccc(-c3ccccc3S(=O)(=O)N3CC(O)C3)cc2F)cn1 [Example 119, 1-{[4′-(5-Aminopyrazin-2-yl)-3′-fluorobiphenyl-2-yl]sulfonyl}azetidin-3-ol]	3	22	
Nc1cnc(-c2ccc(-c3ccccc3S(=O)(=O)NC3CCNCC3)cc2F)cn1 [Example 123, 4′-(5-Aminopyrazin-2-yl)-3′-fluoro-N-piperidin-4-ylbiphenyl-2-sulfonamide]	83	1120	
NCC1CN(S(=O)(=O)c2ccccc2-c2ccc(-c3cnc(N)cn3)c(F)c2)C1 [Example 124, 5-(2′-{[3-(Aminomethyl)azetidin-1-yl]sulfonyl}-3-fluorobiphenyl-4-yl)pyrazin-2-amine]	35	217	
Nc1cnc(-c2ccc(-c3ccccc3S(=O)(=O)NCC3CNC3)cc2F)cn1 [Example 125, 4′-(5-Aminopyrazin-2-yl)-N-(azetidin-3-ylmethyl)-3′-fluorobiphenyl-2-sulfonamide]	50	> 10000	
C[C@@H](NS(=O)(=O)c1ccccc1-c1ccc(-c2cnc(N)cn2)c(F)c1)C(F)(F)F [Example 127, (R)-4′-(5-Aminopyrazin-2-yl)-3′-fluoro-N-(2,2,2-trifluoro-1-methylethyl)biphenyl-2-sulfonamide]	2		35

SMILES	Ki (human FLAP) [nM]	IC50 ([1]; Homo sapiens) [nM]	IC50 [1] [nM]
Nc1cnc(-c2ccc(-c3ccccc3S(=O)(=O)N3CCc4[nH]ncc4C3)cc2F)cn1 [Example 128, 5-[3-Fluoro-2′-(1,4,6,7-tetrahydro-5H-pyrazolo[4,3-c]pyridin-5-ylsulfonyl)biphenyl-4-yl]pyrazin-2-amine]	1	38	
Nc1cnc(-c2ccc(-c3ccccc3S(=O)(=O)N3CCC(n4cn[nH]c4=O)CC3)cc2F)cn1 [Example 129, 4-(1-{[4′-(5-Aminopyrazin-2-yl)-3′-fluorobiphenyl-2-yl]sulfonyl}piperidin-4-yl)-2,4-dihydro-3H-1,2,4-triazol-3-one]	4	534	
Nc1cnc(-c2ccc(-c3ccccc3S(=O)(=O)N3C[C@H]4C[C@@H]3CN4)cc2F)cn1 [Example 130, 5-(2′-((1R,4R)-2,5-Diazabicyclo[2.2.1]heptan-2-ylsulfonyl)-3-fluoro-[1,1′-biphenyl]-4-yl)pyrazin-2-amine]	129	633	
Nc1cnc(-c2ccc(-c3ccccc3S(=O)(=O)N3C[C@@H]4C[C@H]3CN4)cc2F)cn1 [Example 131, 5-(2′-((1S,4S)-2,5-Diazabicyclo[2.2.1]heptan-2-ylsulfonyl)-3-fluoro-[1,1′-biphenyl]-4-yl)pyrazin-2-amine]	144	695	
Nc1cnc(-c2ccc(-c3ccccc3S(=O)(=O)NCCCCCO)cc2F)cn1 [Example 132, 4′-(5-Aminopyrazin-2-yl)-3′-fluoro-N-(5-hydroxypentyl)biphenyl-2-sulfonamide]	2	11	
Nc1cnc(-c2ccc(-c3ccccc3S(=O)(=O)NCCCCCCO)cc2F)cn1 [Example 133, 4′-(5-Aminopyrazin-2-yl)-3′-fluoro-N-(6-hydroxyhexyl)biphenyl-2-sulfonamide]	1	32	
Nc1cnc(-c2ccc(-c3ccccc3S(=O)(=O)N[C@H]3CC[C@@H](N)CC3)cc2F)cn1 [Example 134, cis-N-(4-Aminocyclohexyl)-4′-(5-aminopyrazin-2-yl)-3′-fluorobiphenyl-2-sulfonamide]	1	> 1000	
Nc1cnc(-c2ccc(-c3ccccc3S(=O)(=O)N(CCO)C3CCCCC3)cc2F)cn1 [Example 136, 4′-(5-Aminopyrazin-2-yl)-N-cyclohexyl-3′-fluoro-N-(2-hydroxyethyl)biphenyl-2-sulfonamide]	1	15	
Nc1cnc(-c2ccc(-c3ccccc3S(=O)(=O)N3CCC[C@H](N)C3)cc2F)cn1 [Example 137, (S)-5-{2′-[(3-Aminopiperidin-1-yl)sulfonyl]-3-fluorobiphenyl-4-yl}pyrazin-2-amine]	3	44	
Nc1cnc(-c2ccc(-c3ccccc3S(=O)(=O)N(CCO)CCO)cc2F)cn1 [Example 138, 4′-(5-Aminopyrazin-2-yl)-3′-fluoro-N,N-bis(2-hydroxyethyl)biphenyl-2-sulfonamide]	11	174	
Nc1cnc(-c2ccc(-c3ccccc3S(=O)(=O)N(C3CCOCC3)C3CC3)cc2F)cn1 [Example 140, 4′-(5-Aminopyrazin-2-yl)-N-cyclopropyl-3′-fluoro-N-(tetrahydro-2H-pyran-4-yl)biphenyl-2-sulfonamide]	1	11	
CC(C)N(CCO)S(=O)(=O)c1ccccc1-c1ccc(-c2cnc(N)cn2)c(F)c1 [Example 141, 4′-(5-Aminopyrazin-2-yl)-3′-fluoro-N-(2-hydroxyethyl)-N-(1-methylethyl)biphenyl-2-sulfonamide]	1	3	
Nc1cnc(-c2ccc(-c3ccccc3S(=O)(=O)N3C[C@@H]4C(N)[C@@H]4C3)cc2F)cn1 (stereo partly drawn) [Example 143, endo-3-((4′-(5-Aminopyrazin-2-yl)-3′-fluoro-[1,1′-biphenyl]-2-yl)sulfonyl)-3-azabicyclo[3.1.0]hexan-6-amine]	8	49	
C[C@H]1CNCCN1S(=O)(=O)c1ccccc1-c1ccc(-c2cnc(N)cn2)c(F)c1 [Example 144, (S)-5-(3-Fluoro-2′-((2-methylpiperazin-1-yl)sulfonyl)-[1,1′-biphenyl]-4-yl)pyrazin-2-amine]	15	97	
C[C@@H]1CNCCN1S(=O)(=O)c1ccccc1-c1ccc(-c2cnc(N)cn2)c(F)c1 [Example 145, (R)-5-(3-Fluoro-2′-((2-methylpiperazin-1-yl)sulfonyl)-[1,1′-biphenyl]-4-yl)pyrazin-2-amine]	17	21	
Nc1cnc(-c2ccc(-c3ccccc3S(=O)(=O)N3CCNC[C@@H]3CO)cc2F)cn1 [Example 146, (R)-(1-((4′-(5-Aminopyrazin-2-yl)-3′-fluoro-[1,1′-biphenyl]-2-yl)sulfonyl)piperazin-2-yl)methanol]	19	168	
